Like-named read-outs stand apart in the source and are kept apart here.
Tests used:
[1] = biological target: T1, VBC protein (VHL, elongin B, elongin C) (Homo sapiens, UniProt P40337); assay: Competitive fluorescence polarization (FP) binding assay displacing FAM-labelled HIF-1α peptide
T1 construct: made in house
Procedure: Control wells contained VBC and peptide in the absence of compound (maximum signal), and peptide in the absence of protein (background signal). Data were obtained in triplicate and the percentage of displacement was determined and graphed against log[VHL inhibitors]. Average IC50 values and the standard error of the mean (SEM) were determined for each titration using Prism 6. Dissociation constants Kd were back-calculated from the measured IC50 values using a displacement binding model, as described previously.^6

[2] = Quantification of ligand trans and cis isomers in solution by NMR; assay type: physicochemical; conditions: free ligand in solution
From the text: We next evaluated the impact of thioamide substitutions to the n → π^∗ interaction in the ligand free state in solution. This interaction is only possible when the Hyp (thio)amide group is in the trans isomer conformation (Fig. 1A). Thus, the ratio between the trans and cis isomers at equilibrium can be used to infer the strength of the n → π^∗ interaction.[13]
Quantification of ligands trans and cis isomers in solution.

[3] = biological target: VBC complex (VHL, elongin B, elongin C) (Homo sapiens, UniProt P40337); assay: Isothermal titration calorimetry (ITC) direct titration; conditions: for ΔH: ITC enthalpy of binding; for ΔH / Kd: 25°C; for Kd: read-out: Kd ITC, pH 7, 3% DMSO
[4] = back-calculated from measured IC50, 15 nM VBC, 10 nM FAM-HIF-1α peptide, pH 7, read-out: Kd FP
[5] = relative to unmodified ligand 1

Kd [1, 4] | loss in binding affinity by FP [1, 5] | trans:cis (%) - cis isomer [2] | trans:cis (%) - trans isomer [2] | ΔH [3] | Kd [3] | loss in binding affinity by ITC [3, 5] | Kd ([1]; text summary of FP and ITC, read-out: Kd) | Structure (SMILES)
1 ± 0.4 µM | twofold | 6% | 94% | -6.79 ± 0.01 kcal/mol | 0.76 ± 0.02 µM | twofold |  | CC(=O)N[C@@H](C)C(=S)N1C[C@H](O)C[C@H]1C(=O)NCc1ccc(-c2scnc2C)cc1 [compound 3, (2S,4R)-1-((S)-2-Acetamidopropanethioyl)-4-hydroxy-N-(4-(4-methylthiazol-5-yl)benzyl)pyrrolidine-2-carboxamide]
 |  | 11% | 89% |  |  |  |  | CC(=O)N[C@@H](C)C(=O)N1C[C@H](O)C[C@H]1C(=S)NCc1ccc(-c2scnc2C)cc1 [compound 2, N-((S)-1-((2S,4R)-4-Hydroxy-2-((4-(4-methylthiazol-5-yl)benzyl)carbamothioyl)pyrrolidin-1-yl)-1-oxopropan-2-yl)acetamide]
> 13 µM |  | 10% | 90% | -2.56 ± 0.01 kcal/mol | 21.6 ± 0.8 µM |  | > 10 µM | CC(=O)N[C@@H](C)C(=S)N1C[C@H](O)C[C@H]1C(=S)NCc1ccc(-c2scnc2C)cc1 [compound 4, N-((S)-1-((2S,4R)-4-hydroxy-2-((4-(4-methylthiazol-5-yl)benzyl)carbamothioyl)pyrrolidin-1-yl)-1-thioxopropan-2-yl)acetamide]
 |  | 8% | 92% |  |  |  |  | CC(=O)N[C@@H](C)C(=O)N1C[C@H](O)C[C@H]1C(=O)NCc1ccc(-c2scnc2C)cc1 [compound 1]

Source: publication PMC6008493, “Thioamide substitution to probe the hydroxyproline recognition of VHL ligands” (Bioorganic & Medicinal Chemistry, 2018)
